The values that follow come from paper PMC10333884, “Large‐scale phosphomimetic screening identifies phospho‐modulated motif‐based protein interactions” (Molecular Systems Biology, 2023).

Holding throughout (assay type): binding
The target in test [1] is T1, RANBP2 RanBD4 (Homo sapiens, UniProt P49792).
T1 construct: GST (cleaved yes); made in house; host or cells: Escherichia coli BL21-Gold(DE3)
T1 sequence (P49792 2924-3050): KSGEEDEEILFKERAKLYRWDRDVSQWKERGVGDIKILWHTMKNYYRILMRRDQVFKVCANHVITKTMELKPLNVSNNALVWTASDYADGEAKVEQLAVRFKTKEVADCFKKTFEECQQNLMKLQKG
Description: FP displacement assay, RANBP2 RanBD4. As to conditions: probe FITC-C7orf25 5 nM, 50 mM sodium phosphate pH 7.4, room temperature, at least three technical replicates, read-out: KD values ± SEM. As for the experimental part:
(§1) FP experiments were performed as described previously (Kliche et al, [2021]). Shortly, in order to monitor the binding event, FITC‐labelled peptides were used (excitation 495 nm, emission: 535 nm) and the FP signal was recorded in mP on a SpectraMax iD5 Multi‐Mode Microplate Reader (Molecular Devices) by measuring the emitted light in two angels. The measurements were performed at room temperature and prepared in nonbinding black half area 96‐well microplates (Corning®; 50 μl/well). For measuring direct binding, that is saturation curves, a 1:1 dilution series of protein domain (25 μl/well) was generated in 50 mM sodium phosphate buffer pH 7.4 and the measurement performed with 5 nM FITC‐labelled peptide (25 μl/well). The buffer‐corrected values were subsequently plotted with PRISM and fitted to the quadratic equation (Gianni et al, [2005]).
(§2) The 1:1 dilution series in this experiment was performed with the unlabelled peptide in 50 mM sodium phosphate buffer pH 7.4, so that each well‐contained unlabelled peptide (25 μl) at a certain concentration and pre‐formed complex (25 μl). The KD values of this indirectly monitored binding event were calculated as described previously (Nikolovska‐Coleska et al, [2004]). All measurements were at least in technical triplicates as well as biological duplicates when indicated. An amplitude shift between repeat measurements in the displacement experiments was occasionally observed due to variations in the protein preparations. If that was the case, the “active” protein concentration was back‐calculated according to the quadratic equation from the saturation curves performed in parallel. By comparing the active protein concentrations in the complex between different protein preparations, the amplitude was normalised.

The target in test [2] is T2, PDCD6IP Alix V domain (Homo sapiens, UniProt Q8WUM4).
T2 construct: GST (cleaved yes); made in house; host or cells: Escherichia coli BL21-Gold(DE3)
T2 sequence (Q8WUM4 360-702): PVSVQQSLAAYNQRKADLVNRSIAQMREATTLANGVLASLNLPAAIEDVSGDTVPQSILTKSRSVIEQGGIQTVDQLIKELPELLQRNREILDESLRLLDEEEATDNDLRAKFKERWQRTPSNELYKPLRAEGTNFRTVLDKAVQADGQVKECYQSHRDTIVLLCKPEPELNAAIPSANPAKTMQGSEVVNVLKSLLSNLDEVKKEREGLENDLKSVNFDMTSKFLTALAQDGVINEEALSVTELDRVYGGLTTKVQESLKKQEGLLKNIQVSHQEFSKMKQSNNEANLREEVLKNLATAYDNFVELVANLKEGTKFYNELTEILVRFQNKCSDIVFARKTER
Description: FP displacement assay, PDCD6IP Alix V domain. As to conditions: probe FITC-HIV1_Gag 5 nM, 50 mM sodium phosphate pH 7.4, room temperature, at least three technical replicates, read-out: KD values ± SEM. As to the method:
as §1, §2

Test [3] addresses T3, AP2 μ2 (Homo sapiens, UniProt Q96CW1).
T3 construct: AP2_Mu__Q96CW1_160_435; GST (cleaved yes); made in house; host or cells: Escherichia coli BL21-Gold(DE3)
T3 sequence (Q96CW1 160-435): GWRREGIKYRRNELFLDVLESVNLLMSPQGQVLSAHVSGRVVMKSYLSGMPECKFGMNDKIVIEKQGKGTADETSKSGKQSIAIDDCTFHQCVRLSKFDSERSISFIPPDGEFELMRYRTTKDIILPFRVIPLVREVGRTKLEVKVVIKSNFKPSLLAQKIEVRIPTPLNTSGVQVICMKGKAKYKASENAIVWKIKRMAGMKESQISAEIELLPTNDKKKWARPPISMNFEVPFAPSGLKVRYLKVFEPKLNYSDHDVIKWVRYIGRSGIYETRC
Description: FP displacement assay, AP2 μ2. As to conditions: probe FITC-ATG9A 5 nM, 50 mM sodium phosphate pH 7.4, room temperature, at least three technical replicates, read-out: KD values ± SEM. As for the experimental part: as §1, §2

For test [4], the target named is T4, Clathrin NTD (Homo sapiens, UniProt Q00610).
T4 construct: GST (cleaved yes); made in house; host or cells: Escherichia coli BL21-Gold(DE3)
T4 sequence (Q00610 1-364): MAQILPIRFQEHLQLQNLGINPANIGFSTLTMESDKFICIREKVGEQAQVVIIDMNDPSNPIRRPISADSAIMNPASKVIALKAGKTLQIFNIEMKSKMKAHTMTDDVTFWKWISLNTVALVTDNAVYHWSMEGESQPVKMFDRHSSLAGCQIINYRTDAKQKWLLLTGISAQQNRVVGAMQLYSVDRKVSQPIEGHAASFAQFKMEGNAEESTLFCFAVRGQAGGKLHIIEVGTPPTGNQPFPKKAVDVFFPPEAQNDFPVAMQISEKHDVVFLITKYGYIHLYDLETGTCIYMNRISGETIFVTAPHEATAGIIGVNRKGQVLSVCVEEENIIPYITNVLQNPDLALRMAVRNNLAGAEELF
Description: FP displacement assay, clathrin NTD. As for the experimental part: as §1, §2

Molecules are shown by their SMILES. Non-standard residues stand in square brackets, D forms with d. Residues, ends and D or L forms follow the SMILES beside them. pT = C[C@@H](OP(=O)(O)O)[C@H](N)C(=O)O; pS = N[C@@H](COP(=O)(O)O)C(=O)O

Turning to `CC(=O)N[C@@H](CCCCN)C(=O)N[C@@H](Cc1ccc(O)cc1)C(=O)N[C@@H](CO)C(=O)N[C@@H](CC(=O)O)C(=O)N[C@@H](CC(=O)O)C(=O)N[C@H](C(=O)N1CCC[C@H]1C(=O)N[C@@H](CC(C)C)C(=O)N1CCC[C@H]1C(=O)N[C@H](C(=O)N1CCC[C@H]1C(=O)N[C@@H](CO)C(=O)N[C@@H](Cc1ccc(O)cc1)C(=O)N[C@@H](CCCCN)C(=O)N[C@@H](Cc1ccc(O)cc1)C(=O)N[C@@H](CC(N)=O)C(N)=O)[C@@H](C)OP(=O)(O)O)[C@@H](C)O` [DHX38_260–275 pS] (Ac-KYSDDTPLP[pT]PSYKYN-NH2), in test [1], the equilibrium dissociation constant (Kd) is 167 ± 21 µM.
Take `CC(=O)N[C@H](C(=O)N[C@@H](COP(=O)(O)O)C(=O)N1CCC[C@H]1C(=O)N[C@@H](CC(C)C)C(=O)N[C@H](C(=O)N[C@@H](CO)C(=O)N[C@@H](CC(C)C)C(=O)N[C@@H](Cc1ccc(O)cc1)C(=O)N1CCC[C@H]1C(=O)N[C@@H](C)C(=O)N[C@@H](CC(C)C)C(=O)N[C@@H](CCC(=O)O)C(=O)N[C@@H](C)C(=O)N[C@@H](CCCNC(=N)N)C(=O)N[C@@H](C)C(=O)N[C@@H](CC(C)C)C(N)=O)C(C)C)[C@@H](C)O` [OTUD5_507–522 pS] (Ac-T[pS]PLVSLYPALEARAL-NH2): the Kd in test [2] is 116 ± 20 µM.
Consider `CC[C@H](C)[C@H](NC(=O)[C@@H](NC(=O)[C@@H]1CCCN1C(=O)[C@H](CO)NC(=O)[C@H](CO)NC(=O)[C@H](C)NC(=O)[C@@H]1CCCN1C(=O)[C@H](CCSC)NC(=O)[C@@H]1CCCN1C(=O)[C@H](CCC(N)=O)NC(=O)[C@H](Cc1ccc(O)cc1)NC(=O)[C@@H]1CCCN1C(=O)[C@@H](NC(=O)[C@@H](NC(=O)[C@H](CCSC)NC(C)=O)[C@@H](C)O)[C@@H](C)CC)C(C)C)C(=O)N[C@@H](CS)C(N)=O` [PCBP1_179–194 wt] (Ac-MTIPYQPMPASSPVIC-NH2), for which the dissociation constant (Kd) in test [3] was found to be 3.7 ± 0.1 µM.
On to `CC[C@H](C)[C@H](NC(=O)[C@H](CCCCN)NC(=O)[C@H](CC(C)C)NC(=O)[C@@H]1CCCN1C(=O)[C@H](CO)NC(=O)[C@@H](NC(=O)[C@H](CCC(N)=O)NC(=O)[C@@H]1CCCN1C(=O)[C@H](Cc1ccc(O)cc1)NC(=O)[C@H](CC(C)C)NC(=O)[C@@H]1CCCN1C(=O)[C@H](CCCNC(=N)N)NC(=O)[C@H](CC(C)C)NC(=O)[C@@H]1CCCN1C(=O)[C@H](CO)NC(=O)[C@H](C)NC(C)=O)[C@@H](C)CC)C(N)=O` [FOXK1_212–227 wt] (Ac-ASPLRPLYPQISPLKI-NH2), for which the Kd in test [2] was determined as 25 ± 3 µM.
`CC(=O)N[C@@H](Cc1c[nH]cn1)C(=O)N[C@@H](CC(C)C)C(=O)N1CCC[C@H]1C(=O)N[C@@H](CC(C)C)C(=O)N[C@@H](CC(N)=O)C(=O)N[C@@H](CO)C(=O)N1CCC[C@H]1C(=O)N[C@@H](CC(C)C)C(=O)N1CCC[C@H]1C(=O)NCC(=O)N[C@@H](CO)C(=O)N[C@@H](CCC(=O)O)C(=O)N[C@@H](CC(C)C)C(=O)N[C@H](C(=O)N[C@@H](CCCCN)C(=O)N[C@@H](Cc1ccc(O)cc1)C(N)=O)[C@@H](C)O` [INTS6_145–159 wt] (Ac-HLPLNSPLPGSELTKY-NH2): the Kd in test [1] is 334 ± 35 µM.
Regarding `CC[C@H](C)[C@H](NC(=O)[C@H](CC(C)C)NC(=O)[C@H](CC(N)=O)NC(=O)CNC(=O)CNC(=O)[C@H](Cc1ccc(O)cc1)NC(C)=O)C(=O)N[C@H](C(=O)N[C@@H](Cc1ccccc1)C(=O)N[C@@H](COP(=O)(O)O)C(=O)N1CCC[C@H]1C(=O)N[C@@H](CC(C)C)C(=O)N[C@@H](CCC(N)=O)C(=O)N1CCC[C@H]1C(=O)NCC(=O)N[C@@H](CCC(=O)O)C(=O)N[C@@H](Cc1ccccc1)C(=O)O)[C@@H](C)O` [HURP832–846 pS Cterm] (Ac-YGGNLITF[pS]PLQPGEF-OH), the Kd in test [4] was < 3 µM. In addition, in test [4] (Fig 6A, clathrin NTD, FP displacement, two to three technical replicates per protein preparation, 2 independent preparations, read-out: IC50 values of displacement curves, with SEM), the IC50 came out at 11 ± 4 µM.
As for `CC(=O)N[C@@H](Cc1c[nH]cn1)C(=O)N[C@@H](CC(C)C)C(=O)N1CCC[C@H]1C(=O)N[C@@H](CC(C)C)C(=O)N[C@@H](CC(N)=O)C(=O)N[C@@H](COP(=O)(O)O)C(=O)N1CCC[C@H]1C(=O)N[C@@H](CC(C)C)C(=O)N1CCC[C@H]1C(=O)NCC(=O)N[C@@H](CO)C(=O)N[C@@H](CCC(=O)O)C(=O)N[C@@H](CC(C)C)C(=O)N[C@H](C(=O)N[C@@H](CCCCN)C(=O)N[C@@H](Cc1ccc(O)cc1)C(N)=O)[C@@H](C)O` [INTS6_145–159 pS] (Ac-HLPLN[pS]PLPGSELTKY-NH2), in test [1], the dissociation constant Kd is 733 ± 128 µM.
With `CC(=O)N[C@H](C(=O)N[C@@H](CO)C(=O)N1CCC[C@H]1C(=O)N[C@@H](CC(C)C)C(=O)N[C@H](C(=O)N[C@@H](CO)C(=O)N[C@@H](CC(C)C)C(=O)N[C@@H](Cc1ccc(O)cc1)C(=O)N1CCC[C@H]1C(=O)N[C@@H](C)C(=O)N[C@@H](CC(C)C)C(=O)N[C@@H](CCC(=O)O)C(=O)N[C@@H](C)C(=O)N[C@@H](CCCNC(=N)N)C(=O)N[C@@H](C)C(=O)N[C@@H](CC(C)C)C(N)=O)C(C)C)[C@@H](C)O` [OTUD5_507–522 wt] (Ac-TSPLVSLYPALEARAL-NH2), in test [2], the Kd stood at 68 ± 6 µM.
Regarding `CC[C@H](C)[C@H](NC(=O)[C@H](CCCCN)NC(=O)[C@H](CC(C)C)NC(=O)[C@@H]1CCCN1C(=O)[C@H](COP(=O)(O)O)NC(=O)[C@@H](NC(=O)[C@H](CCC(N)=O)NC(=O)[C@@H]1CCCN1C(=O)[C@H](Cc1ccc(O)cc1)NC(=O)[C@H](CC(C)C)NC(=O)[C@@H]1CCCN1C(=O)[C@H](CCCNC(=N)N)NC(=O)[C@H](CC(C)C)NC(=O)[C@@H]1CCCN1C(=O)[C@H](CO)NC(=O)[C@H](C)NC(C)=O)[C@@H](C)CC)C(N)=O` [FOXK1_212–227 pS] (Ac-ASPLRPLYPQI[pS]PLKI-NH2), the dissociation constant (Kd) in test [2] amounted to 13 ± 2 µM.
`CC[C@H](C)[C@H](NC(=O)[C@H](CC(C)C)NC(=O)[C@H](CCC(N)=O)NC(=O)CNC(=O)[C@H](Cc1ccc(O)cc1)NC(C)=O)C(=O)N[C@@H](CC(=O)O)C(=O)N[C@@H](CC(C)C)C(=O)N[C@@H](CO)C(=O)N[C@@H](CO)C(=O)N1CCC[C@H]1C(=O)N[C@@H](CC(C)C)C(=O)N[C@H](C(=O)N[C@@H](CCC(N)=O)C(=O)N[C@@H](CC(C)C)C(=O)N[C@@H](CO)C(=O)N1CCC[C@H]1C(=O)N[C@@H](CCC(=O)O)C(N)=O)[C@@H](C)CC` [GTSE1_692–707] (Ac-YGQLIDLSSPLIQLSPE-NH2): the dissociation constant (Kd) in test [4] was ~100 µM.
For the compound `CC(=O)N[C@@H](CCCCN)C(=O)N[C@@H](Cc1ccc(O)cc1)C(=O)N[C@@H](CO)C(=O)N[C@@H](CC(=O)O)C(=O)N[C@@H](CC(=O)O)C(=O)N[C@H](C(=O)N1CCC[C@H]1C(=O)N[C@@H](CC(C)C)C(=O)N1CCC[C@H]1C(=O)N[C@H](C(=O)N1CCC[C@H]1C(=O)N[C@@H](CO)C(=O)N[C@@H](Cc1ccc(O)cc1)C(=O)N[C@@H](CCCCN)C(=O)N[C@@H](Cc1ccc(O)cc1)C(=O)N[C@@H](CC(N)=O)C(N)=O)[C@@H](C)O)[C@@H](C)O` [DHX38_260–275 wt] (Ac-KYSDDTPLPTPSYKYN-NH2), in test [1], the Kd amounted to 1500 µM.

Usually Kd stands for the concentration at which binding is half-saturated. For orientation: IC50 means the concentration at which inhibition is half-maximal.
